The text below walks through data of patent US20110053835A1, “ANTIMICROBIAL PEPTIDES DERIVED FROM CAP18” (OctoPlus Sciences B.V., priority 2004, published 2011).

By MIC is commonly meant the lowest concentration that inhibits growth of the organism.

Series [1] concerns Candida albicans ATCC 10231. How it is done: (§1) The in vitro antibacterial and antifungal activity of P60.4-Ac and LL-37 were determined as the minimum inhibitory concentrations (MIC) by a microdilution susceptibility test in 96-well microtiter plates, according to a modified version of R. Hancock's “Modified MIC method for cationic antimicrobial peptides” [13]. The antibacterial activity was tested on the reference strains Escherichia coli ATCC 8739, Pseudmonas aeruginosa ATCC 9027. The antifungal activity was evaluated on Candida albicans ATCC 10231 and Aspergillus niger ATCC 14406. The antimicrobial activity assay was conducted with different concentrations of P60.4Ac and LL-37 to compare their effects on the bacterial or fungal growth. Antibacterial activity was examined using log-phase cultured bacteria in Trypticase Soy Broth at 37° C. The cultures were diluted with 10 mM Sodium Phosphate buffer pH 7.4 to give approximately 5.0×10^6 CFU/ml. 10 μl of the diluted test strain was transferred to a 96-well plate and 100 μl of the different peptide concentrations was added to each well. The plates were incubated at 37° C. for 24 hours and are then scored for growth by visual inspection on a light box. They are then returned for incubation for a further 24 hours after which time they are re-evaluated for growth. The yeast strain C. albicans was prepared as described above. The filamentous fungi A. niger was used as a spore suspension, cultured on Sabourauds Dextrose Agar plates at 20-25° C. for 6-10 days or until adequate sporulation has occurred. The spores were harvested by scrapping and if necessary the concentration was adjusted to a final concentration of 5×10^6 CFU/ml.

Series [2] has as its system Aspergillus niger ATCC 14406. As to the method:
as §1

The next series concerns P. aeruginosa ATCC9027. How it is done:
as §1

Series [3] deals with Escherichia coli ATCC 8739. Conditions: mean of three determinations. As to the method:
as §1

Series [4] relates to neutrophils isolated from peripheral blood. Kind of series: Neutrophil chemotaxis (modified Boyden chamber). Type of series: cell-based. As to conditions: percentage neutrophils on the membrane compared to positive control 10^−8 M FMLP; 90 minutes at 37° C. As to the method:
Neutrophils chemotaxis was measured with neutrophils isolated from peripheral blood using Percoll density centrifugation (density: 1.082 g/ml). The cells were resuspended at a concentration of 2.5×10^6 cells/ml in chemotaxis medium (20 mM N-2-hydroxyethylpiperazine-N′-2-ethanesulfonic acid (HEPES buffer) HEPES, 132 mM NaCl, 6 mM KCl, 1.2 mM KH2PO4, 1 mM MgSO4, 5.5 mM glucose, 0.1 mM CaCl2 and 0.5% (wt/vol) human serum albumm [Central Laboratory of the Netherlands Red Cross Blood Transfusion Service (CLB), Amsterdam, The Netherlands] diluted 1:1 with serum-free RPMI. The chemotactic activity of the compounds was assessed using a modified Boyden Camber technique. Briefly, 26 μl stimuli diluted in HEPES buffer was added to the wells of the lower compartment, and 50 μl of neutrophil suspension (2.5×10^6 cells/ml) was added to the upper compartment. The compartments were separated by two filters: a lower filter with a pore size of 0.45 μm (Millipore Products, Bedford, Mass.) and an upper filter with a pore size of 8 μm (Sartorius Filter, San Francisco, Calif.). After incubation for 90minutes at 37° C., the upper filters were removed, fixed in ethanol-butanol (80:20, vol/vol), and stained with Weigert solution. To determine neutrophil chemotactic activity, neutrophils were counted in six random high-power fields (×400), and the percentage neutrophils on the membrane as compared to the positive control (10^−8 M, N-formylmethionyl-leucyl-phenylalanine (FMLP, Sigma) was calculated.

Series [5] concerns peripheral blood mononuclear cells (PBMC). Kind of series: γ-IFN Elispot assay. The format is cell-based. Conditions: fraction of positive stimulation indices (positive: >2), 48 hours of culture. As to the method:
(§2) The compounds prepared according to example 1 were tested for their therapeutically undesirable immunogenic activity by using Elispot, T-cell proliferation, ERK-activation, and neutrophil chemotaxis assays. The Elispot assay is applicable to determine effects of drugs, chemicals or other compounds on cytokine secretion in vitro, thereby providing data on their putative modulatory effects on immune function in vivo. The results of the assay are given as fraction of positive responses to IFN-gamma. […] Cytokines are direct mediators of inflammation and influence the progress and direction of many immunological reactions. Perturbation of the balance in cytokine production is widely recognized as a critical factor in several disease states. This balance is already disturbed in the case of conditions such as otitis media with effusion and sinusitis. T. cell proliferation is also not favorable in this situation, because this will also stimulate the immune response that is already out of control.
(§3) For T cell proliferation, 150,000 peripheral blood mononuclear cells (PBMC) were cultured in the absence or presence of 10 μg/ml of the compounds for 5 days in 96 well round bottom plates (Costar Inc. Cambridge, Mass.) in a final volume of 150 μl IMDM complete. As a positive control, PBMC were cultured in the presence of 25 U/ml recombinant IL-2. During the final 20 hours of culture, PBMC were pulsed with [3H]thymidine (0.5 microCi/well), after which 3H-incorporation was measured by liquid scintillation counting. For detection of the T cell cytokines IFN and IL-10 by Elispot analysis, 1.5×10^6 PBMC were cultured in 0.5 ml IMDM complete in the absence or presence of various concentrations of synthetic peptide. As a positive control PBMC were stimulated by 10 μg/ml poke weed mitogen (PWM). After 48 hours of culture, PBMC were harvested by gently rinsing the wells with warm IMDM to collect non-adherent cells, which were washed in a large volume of IMDM. PBMC were subsequently plated on antibody-precoated ELISA plates and cultured for 5 hours in IMDM supplemented with 2% pooled human AB serum at 37° C. 5% CO2, after which the plates were developed according to the manufacturer's protocol (U-CyTech, Utrecht, The Netherlands), Spots were counted on an Olympus microscope and analyzed with Olympus Micro Image 4.0 software (Paes Nederland, Zoeterwoude, The Netherlands). The final results are expressed as fraction of positive stimulation indices (positive: >2).

A further series has as its system LTA. Put plainly: LTA neutralization, whole blood (WB) assay. Type of series: cell-based. As to conditions: ± SD. As to the method:
(§4) The compounds prepared according to example 1 were tested for their capability to neutralize the bacterial toxin LPS with a limulus amoebocyte lysate (LAL) assay and with a whole blood (WB) assay. LTA neutralization was also measured with a whole blood assay. Peptide LL-37 was used as a positive control. The peptide concentration whereby 50% LPS is neutralized was used as a measure of the peptide's activity. These concentration values were as in table 1. The differences between the compounds within each assay were not statistically significant.

Series [6] deals with peripheral blood mononuclear cells (PBMC). Kind of series: T cell proliferation ([3H]thymidine incorporation). Type of series: cell-based. As to conditions: fraction of positive stimulation indices (positive: >2), 10 μg/ml compound, 5 days. How it is done:
as §2, §3

The subject of series [7] is LPS. Kind of series: LPS neutralization, limulus amoebocyte lysate (LAL) assay. The format is biochemical. Conditions: ± SD. As to the method:
as §4

Series [8] concerns LPS. Put plainly: LPS neutralization, whole blood (WB) assay. Type of series: cell-based. Conditions: ± SD. How it is done: as §4
In a further series the test system is rats. Put plainly: Single and repeated dose intravenous systemic toxicity study. Type of series: in vivo, rat. How it is done:
The systemic toxicity of P60.4Ac was assessed in a single and repeated dose toxicity study in rats. The peptide was administered daily intravenously in escalating doses. In this phase, the Maximum Tolerated Dose (MTD) was established. Repeated dose toxicity was also studied in the MTD phase. In the dose escalation phase, 9 rate were divided in three groups and received 0.4, 2 or 8 mg/kg/day for two days. Clinical signs were recorded twice daily on days of dosing and one day after dosing, body weights were recorded prior to the first dose and one day after dosing. In the MTD phase, 5 female and 5 male rats received 8 mg/kg/day for 5 following days. Clinical signs were recorded twice daily on days of dosing, body weight on day 1 and 6. Clinical laboratory investigations were performed prior to necropsy. Macroscopy was performed at termination of the MTD phase.

A further series deals with guinea pigs. The format is in vivo, guinea pig. As to the method:
The skin was sutured closed and follow-up auditory testing was performed.
Auditory brainstem response (ABR) was performed prior to drug administration and directly after surgery and 3, 7, 14 and 22 days later, using a computer-based signal averaging system (Tucker-Davis Technology, Alucha, Fla., USA). Guinea pigs were anesthetized and an insert earphone was placed into the external ear canal. […] Ground electrodes were placed over the neck muscles. […] Stimulus intensities were measured and expressed as dB.

For series [9], the system named is rabbits. Conditions: 0.5 ml peptide solution 2 mg/ml on clipped skin for 4 hours, semi-occlusive; observed 1-72 hours.
Protocol: (§5) For the skin and eye irritation tests, three rabbits were exposed to 0.5 ml phosphate buffered peptide solution (2 mg/ml), applied onto clipped skin for 4 hours using a semi-occlusive dressing. Observations were made 1, 24, 48, and 72 hours after exposure. Single samples of 0.1 ml of phosphate buffered (pH7.5) peptide solution (2 mg/ml) were instilled into one eye of each of three rabbits to perform an acute eye irritation/corrosion study. Observations were made 1, 24, 48, and 72 hours after instillation.
The subject of series [10] is rabbits.
Protocol: as §5
Where [11] appears, read: C. albicans ATCC10231, incubation 24 h.
Where [12] appears, read: C. albicans ATCC10231, incubation 48 h.
The mark [13] stands for this setting: A. niger ATCC14406, incubation 24 h.
Where [14] appears, read: A. niger ATCC14406, incubation 48 h.
[15] abbreviates: P. aeruginosa ATCC9027, incubation 24 h.
[16] abbreviates: P. aeruginosa ATCC9027, incubation 48 h.
The mark [17] stands for this setting: E. coli ATCC8739, incubation 24 h.
Setting [18] is: E. coli ATCC8739, incubation 48 h.
The mark [19] stands for this setting: intravenous, 8 mg/kg/day for 5 days.
Where [20] appears, read: intravenous, 0.4, 2 or 8 mg/kg/day for two days.

Converted amounts (≈) assume the structure as drawn. Read-outs that look alike come from different tables or passages of the source. Marks after values point to notes of the source that are not given here.

Take `CC[C@H](C)[C@H](NC(=O)[C@H](CCCCN)NC(=O)[C@H](CCC(=O)O)NC(=O)[C@H](CCCCN)NC(=O)[C@H](CO)NC(=O)[C@H](CCCCN)NC(=O)[C@H](CCCNC(=N)N)NC(=O)[C@H](Cc1ccccc1)NC(=O)[C@H](Cc1ccccc1)NC(=O)[C@H](CC(=O)O)NC(=O)CNC(=O)[C@H](CC(C)C)NC(=O)[C@@H](N)CC(C)C)C(=O)NCC(=O)N[C@@H](CCCCN)C(=O)N[C@@H](CCC(=O)O)C(=O)N[C@@H](Cc1ccccc1)C(=O)N[C@@H](CCCCN)C(=O)N[C@@H](CCCNC(=N)N)C(=O)N[C@H](C(=O)N[C@H](C(=O)N[C@@H](CCC(N)=O)C(=O)N[C@@H](CCCNC(=N)N)C(=O)N[C@H](C(=O)N[C@@H](CCCCN)C(=O)N[C@@H](CC(=O)O)C(=O)N[C@@H](Cc1ccccc1)C(=O)N[C@@H](CC(C)C)C(=O)N[C@@H](CCCNC(=N)N)C(=O)N[C@@H](CC(N)=O)C(=O)N[C@@H](CC(C)C)C(=O)N[C@H](C(=O)N1CCC[C@H]1C(=O)N[C@@H](CCCNC(=N)N)C(=O)N[C@H](C(=O)N[C@@H](CCC(=O)O)C(=O)N[C@@H](CO)C(=O)O)[C@@H](C)O)C(C)C)[C@@H](C)CC)C(C)C)[C@@H](C)CC` [LL-37, reference compound]: the MIC is 12 µM (≈ 53.9 µg/mL) in series [1] (setting [11]); >18^e μM in series [1] (setting [12]); above 18 µM in series [2] (setting [13]); >18^e μM in series [2] (setting [14]); 3 µM (≈ 13.5 µg/mL) against P. aeruginosa ATCC9027 (setting [15]); 14^d μM with P. aeruginosa ATCC9027 (setting [16]). Besides, the minimum inhibitory concentration (MIC) in series [3] (setting [17]) is 3 µM (≈ 13.5 µg/mL); in [3] (setting [18]), 7^b μM. Moreover, the “activity against A. niger” value in series [2] (up to 18 μM) is “no activity”. Also, in [4], the “Chemotaxis (%)” value was determined as 84 ± 17%. Besides, the “γ-IFN Elispot” value in [5] is on record as 4/8. Besides, in the series on LTA, the “Compound concentration for 50% LTA-neutralization, LTA (WB)” value worked out at 1.6 ± 0.5 µg/mL. In series [6], the T cell proliferation was 6/8. In addition, the “Compound concentration for 50% LPS-neutralization, LPS (LAL)” value with LPS [7] was found to be 1.3 ± 0.2 µg/mL. Besides, the “Compound concentration for 50% LPS-neutralization, LPS (WB)” value in the series on LPS [8] was 1.2 ± 0.3 µg/mL.

Regarding “Ac-IGKEFKRIVERIKRFLRELVRPLR-NH2 [Compound P60.4Ac]”, in the series on rats (setting [19]), the “clinical signs, body weight, hematology, clinical biochemistry and macroscopic examination, MTD phase” value is reported as “no clear peptide related findings”. The “mortality, MTD phase” value with rats (setting [19]) is “no mortality occurred”. Besides, the “clinical signs and body weight, dose escalation phase” value in the series on rats (setting [20]) is on record as “no clear deviations”. In the series on rats (setting [20]), the “mortality, dose escalation phase” value is “no mortality occurred”. Besides, the MIC in series [1] (setting [11]) is 6 µM; in series [1] (setting [12]), 6^f μM; in series [2] (setting [13]) it was 18 µM; in series [2] (setting [14]), >18^e μM; in the series with P. aeruginosa ATCC9027 (setting [15]), 3 µM; against P. aeruginosa ATCC9027 (setting [16]) it was 6^b μM. For the same molecule, the MIC in series [3] (setting [17]) is 2 µM; in series [3] (setting [18]), 3^c μM. Further, the ABR threshold change in the series on guinea pigs (P60.4-Ac 2 mg/ml in PBS, 22 days after surgery) is −7 dB; in the series with guinea pigs (P60.4-Ac as formulation II, both animals, 22 days), 1 dB. In the series on rabbits [9], the skin irritation entry is “no skin irritation was detectable”. Further, in the series on rabbits [10] (0.1 ml peptide solution 2 mg/ml into one eye), the “time to complete resolution of conjunctival redness after instillation” value is at most 24 h. Further, the “eye irritation finding after ophthalmic instillation” value in the series on rabbits [10] (0.1 ml phosphate buffered (pH7.5) peptide solution 2 mg/ml into one eye) is “redness of the conjunctivae”.
